Data taken from patent publication US20230150953A1, “SUBSTITUTED ISOPHTHALIC ACID DIAMIDES” (Bayer Aktiengesellschaft, priority 2020, published 2023).

Legend:
Type in all cases: in vivo
[1] = system: AMARE Amaranthus retroflexus; test: Post-emergence herbicidal action against harmful plants; settings: one-leaf stage, assessed visually after about 3 weeks vs untreated controls
Text: (§1) The abbreviations used for the harmful plants mean: • ABUTH Abutilon theophrasti ALOMY Alopecurus myosuroides • AVEFA Avena fatua AMARE Amaranthus retroflexus • CYPES Cyperus esculentus DIGSA Digitaria sanguinalis • ECHCG Echinochloa crus-galli HORMU Hordeum murinum • LOLMU Lolium multiflorum LOLRI Lolium rigidum • MATIN Matricaria inodora PHBPU Pharbitis purpurea • POLCO Polygonum convolvulus SETVI Setaria viridis • STEME Stellaria media VERPE Veronica persica • VIOTR Viola tricolor 2. Post-Emergence Herbicidal Action Against Harmful Plants Seeds of monocotyledonous and dicotyledonous weed and crop plants are laid out in sandy loam soil in wood-fiber pots, covered with soil and cultivated in a greenhouse under good growth conditions. 2 to 3 weeks after sowing, the test plants are treated at the one-leaf stage. The compounds of the invention, formulated in the form of wettable powders (WP) or as emulsion concentrates (EC), are then sprayed onto the green parts of the plants in the form of an aqueous suspension or emulsion at a water application rate equivalent to 600 to 800 l/ha, with addition of 0.2% wetting agent. After the test plants have been left to stand in the greenhouse under optimal growth conditions for about 3 weeks, the action of the preparations is assessed visually in comparison to untreated controls (herbicidal action in percent (%): 100% activity=the plants have died, 0% activity=like control plants). […] The tables below illustrate, in an illustrative manner, the post-emergence herbicidal action of the compounds of the invention, the herbicidal activity being stated in percent.

[2] = system: ALOMY Alopecurus myosuroides; test: as above; settings: one-leaf stage, assessed visually after about 3 weeks vs untreated controls
Text: as §1

[3] = system: ECHCG Echinochloa crus-galli; test: as above; settings: one-leaf stage, assessed visually after about 3 weeks vs untreated controls
Text: as §1

[4] = system: ABUTH Abutilon theophrasti; test: Pre-emergence herbicidal action against harmful plants; settings: scored visually after 3 weeks vs untreated controls
Text: (§2) The abbreviations used for the harmful plants mean: • ABUTH Abutilon theophrasti ALOMY Alopecurus myosuroides • AVEFA Avena fatua AMARE Amaranthus retroflexus • CYPES Cyperus esculentus DIGSA Digitaria sanguinalis • ECHCG Echinochloa crus-galli HORMU Hordeum murinum • LOLMU Lolium multiflorum LOLRI Lolium rigidum • MATIN Matricaria inodora PHBPU Pharbitis purpurea • POLCO Polygonum convolvulus SETVI Setaria viridis • STEME Stellaria media VERPE Veronica persica • VIOTR Viola tricolor 1. Pre-Emergence Herbicidal Action Against Harmful Plants Seeds of monocotyledonous and dicotyledonous weed plants and crop plants are laid out in sandy loam soil in wood-fiber pots and covered with soil. The compounds of the invention, formulated in the form of wettable powders (WP) or as emulsion concentrates (EC), are then applied to the surface of the covering soil in the form of an aqueous suspension or emulsion at a water application rate equivalent to 600 to 800 l/ha, with addition of 0.2% wetting agent. After the treatment, the pots are placed in a greenhouse and kept under good growth conditions for the trial plants. The damage to the test plants is scored visually after a test period of 3 weeks by comparison with untreated controls (herbicidal activity in percent (%): 100% activity=the plants have died, 0% activity=like control plants). […] The tables below illustrate, in an illustrative manner, the post-emergence herbicidal action of the compounds of the invention, the herbicidal activity being stated in percent.

SETVI Setaria viridis [5] = test: as above; settings: 80 g/ha, scored visually after 3 weeks vs untreated controls
Text: as §2

[6] = system: AMARE Amaranthus retroflexus; test: as above; settings: scored visually after 3 weeks vs untreated controls
Text: as §2

[7] = system: POLCO Polygonum convolvulus; test: as above; settings: 80 g/ha, scored visually after 3 weeks vs untreated controls
Text: as §2

MATIN Matricaria inodora [8] = test: as above; settings: scored visually after 3 weeks vs untreated controls
Text: as §2

[9] = system: DIGSA Digitaria sanguinalis; test: as above; settings: scored visually after 3 weeks vs untreated controls
Text: as §2

[10] = system: ALOMY Alopecurus myosuroides; test: as above; settings: scored visually after 3 weeks vs untreated controls
Text: as §2

AVEFA Avena fatua [11] = test: as above; settings: scored visually after 3 weeks vs untreated controls
Text: as §2

[12] = system: ECHCG Echinochloa crus-galli; test: as above; settings: scored visually after 3 weeks vs untreated controls
Text: as §2

[13] = system: ABUTH Abutilon theophrasti; test: Post-emergence herbicidal action against harmful plants; settings: one-leaf stage, assessed visually after about 3 weeks vs untreated controls
Text: as §1

MATIN Matricaria inodora [14] = test: as above; settings: one-leaf stage, assessed visually after about 3 weeks vs untreated controls
Text: as §1

[15] = system: DIGSA Digitaria sanguinalis; test: as above; settings: one-leaf stage, assessed visually after about 3 weeks vs untreated controls
Text: as §1

VERPE Veronica persica = test: as above; settings: one-leaf stage, assessed visually after about 3 weeks vs untreated controls
Text: as §1

PHBPU Pharbitis purpurea [16] = test: as above; settings: one-leaf stage, assessed visually after about 3 weeks vs untreated controls
Text: as §1

PHBPU Pharbitis purpurea [17] = test: Pre-emergence herbicidal action against harmful plants; settings: 80 g/ha, scored visually after 3 weeks vs untreated controls
Text: as §2

SETVI Setaria viridis [18] = test: Post-emergence herbicidal action against harmful plants; settings: one-leaf stage, assessed visually after about 3 weeks vs untreated controls
Text: as §1

[19] = system: POLCO Polygonum convolvulus; test: as above; settings: one-leaf stage, assessed visually after about 3 weeks vs untreated controls
Text: as §1

AVEFA Avena fatua [20] = test: as above; settings: one-leaf stage, assessed visually after about 3 weeks vs untreated controls
Text: as §1

LOLRI Lolium rigidum = test: Pre-emergence herbicidal action against harmful plants; settings: scored visually after 3 weeks vs untreated controls
Text: as §2

| Structure (SMILES) | Post-emergence action at 5 g/ha against AMARE in % [1] | Post-emergence action at 20 g/ha against AMARE in % [1] | Post-emergence action at 20 g/ha against ALOMY in % [2] | Pre-emergence action at 80 g/ha against ABUTH in % [4] | Pre-emergence action at 80 g/ha against SETVI in % (SETVI Setaria viridis [5]) | Pre-emergence action at 20 g/ha against AMARE in % [6] | Pre-emergence action at 80 g/ha against AMARE in % [6] | Pre-emergence action at 80 g/ha against POLCO in % [7] | Pre-emergence action at 80 g/ha against MATIN in % (MATIN Matricaria inodora [8]) | Pre-emergence action at 20 g/ha against DIGSA in % [9] | Pre-emergence action at 80 g/ha against DIGSA in % [9] | Pre-emergence action at 80 g/ha against ALOMY in % [10] | Pre-emergence action at 80 g/ha against AVEFA in % (AVEFA Avena fatua [11]) | Pre-emergence action at 80 g/ha against ECHCG in % [12] | Post-emergence action at 20 g/ha against MATIN in % (MATIN Matricaria inodora [14]) | Post-emergence action at 20 g/ha against DIGSA in % [15] | Post-emergence action at 20 g/ha against PHBPU in % (PHBPU Pharbitis purpurea [16]) | Pre-emergence action at 20 g/ha against MATIN in % (MATIN Matricaria inodora [8]) | Pre-emergence action at 80 g/ha against PHBPU in % (PHBPU Pharbitis purpurea [17]) | Post-emergence action at 20 g/ha against POLCO in % [19] | other results |
| --- | --- | --- | --- | --- | --- | --- | --- | --- | --- | --- | --- | --- | --- | --- | --- | --- | --- | --- | --- | --- | --- |
| Cc1c(C(=O)Nc2nnnn2C)c(F)cc(C(F)(F)F)c1C(=O)NCC1CC1 [Example 1-384] | 80% | 90% | 80% | 100% | 90% | 100% | 100% | 90% | 80% | 100% | 100% | 80% | 80% | 100% | – | – | – | – | – | – | Post-emergence action at 5 g/ha against ECHCG in % ([3]; 5 g/ha): 80%; Post-emergence action at 20 g/ha against ECHCG in % ([3]; 20 g/ha): 80% |
| CCN(C)C(=O)c1c(C(F)(F)F)cc(F)c(C(=O)Nc2nnnn2CC)c1C [Example 2-96] | 80% | 90% | – | 90% | – | 100% | 100% | 80% | 90% | 80% | 90% | 80% | – | 80% | 80% | 90% | 90% | 80% | 80% | – | Post-emergence action at 20 g/ha against ABUTH in % [13]: 80%; Post-emergence action at 20 g/ha against VERPE in % (VERPE Veronica persica): 80% |
| Cc1c(C(=O)Nc2nnnn2C)cc(Cl)c(C(F)(F)F)c1C(=O)NC1CC1 [Example 1-85] | – | 80% | 80% | 100% | 100% | 100% | 100% | 80% | 100% | 100% | 100% | 80% | – | 80% | – | 90% | 80% | 80% | 80% | 80% | Post-emergence action at 20 g/ha against SETVI in % (SETVI Setaria viridis [18]): 80%; Post-emergence action at 20 g/ha against AVEFA in % (AVEFA Avena fatua [20]): 80% |
| CCn1nnnc1NC(=O)c1cc(Cl)c(C(F)(F)F)c(C(=O)NC2CC2)c1C [Example 2-85] | 80% | 90% | 80% | 100% | 100% | 100% | 100% | 80% | 100% | 80% | 100% | 90% | 80% | 80% | 80% | 90% | 90% | 90% | 90% | 80% | Post-emergence action at 5 g/ha against PHBPU in % (PHBPU Pharbitis purpurea [16]; 5 g/ha): 80%; Pre-emergence action at 20 g/ha against ABUTH in % ([4]; 20 g/ha): 80%; Pre-emergence action at 80 g/ha against LOLRI in % (LOLRI Lolium rigidum): 80%; Pre-emergence action at 20 g/ha against ALOMY in % ([10]; 20 g/ha): 80% |
